Test results reported in patent US20220213119A1, “THIENOHETEROCYCLIC DERIVATIVE, PREPARATION METHOD THEREFOR AND MEDICAL USE THEREOF” (Jiangsu Hengrui Medicine Ca, Lid., priority 2019, published 2022).

How the values were obtained:
ERK2 = molecular target: T1, ERK2 (Homo sapiens, UniProt P28482); assay: ERK2 enzyme activity test (ADP-Glo Kinase Assay); type: biochemical; conditions: chemiluminescence
T1 construct: purchased R&D 1230-KS-010
Description: (§1) The purpose of this experiment is to detect the inhibitory ability of the compounds on the ERK2 enzyme activity and evaluate the activity of the compounds in vitro according to IC50. The ADP-Glo™ Kinase Assay Kit was used in this experiment. Under the action of enzyme, the substrate was phosphorylated and ADP was produced at the same time. The ADP-Glo Reagent was added to remove unreacted ATP in the reaction system. The kinase detection reagent was used to detect the ADP produced by the reaction. In the presence of the compound, the inhibition rate of the compound was calculated by measuring the signal value.
Enzyme and substrate preparation: ERK2 (1230-KS-010, R&D) and substrate (Custom peptides, Gill Biochemical) were prepared to be 0.75 ng/μl and 1500 μM in the buffer (40 mM Tris, 20 mM MgCl2, 0.1 mg/mL BSA, 50 μM DTT). The enzyme solution and substrate solution were then prepared into a mixed solution at a volume ratio of 2:1 for later use. ATP was diluted to 500 μM with the buffer. The compounds were dissolved in DMSO (dimethyl sulfoxide, Shanghai Titan Scientific Co., Ltd.) to prepare a stock solution with an initial concentration of 20 mM, and then Bravo was used to prepare solutions of the compounds. Finally, a 3 μL of a mixed solution of enzyme and substrate, and 1 μL of different concentrations of the compound (the initial concentration is 50 μM, 4-fold dilution) were added to each well of the 384-well plate, and the plate was incubated at 30° C. for 10 minutes, and finally 1 μL of 500 μM ATP solution was added to each well, and the plate was incubated at 30° C. for 2 hours. Then 5 μL of ADP-Glo was added, and the plate was incubated at 30° C. for 40 minutes. Then 10 μL of Kinase detection buffer was added, and the plate was incubated at 30° C. for 40 minutes. The 384-well plate was taken out and placed in a microplate reader (BMG labtech, PHERAstar FS), and the chemiluminescence was measured by the microplate reader.
(§2) The data were processed and analyzed with Microsoft Excel, Graphpad Prism 5.

Colo205 cells = assay: In vitro proliferation inhibition test on Colo205 tumor cells (CellTiter-Glo); type: cell-based; conditions: Homo sapiens, COLO 205, 72 h; Colo205 cell proliferation, 3 days of culture, CTG
Description: The purpose of this experiment is to test the inhibitory activity of the compounds on the proliferation of Colo205 cells (CCL-222, ATCC) in vitro. The cells were treated with different concentrations of compounds in vitro. After 3 days of culture, the cell proliferation was detected using CTG (CellTiter-Glo® Luminescent Cell Viability Assay, Promega, catalog number: G7573) reagent. The in vitro activity of the compounds was evaluated according to the IC50 value.
In the following, taking the in vitro proliferation inhibition test method of Colo205 cells as an example, the method in the present disclosure for testing the in vitro proliferation inhibitory activity of the compounds of the present disclosure is described. This method is also applicable to, but not limited to, the in vitro proliferation inhibitory activity test on other tumor cells.
Colo205 cells were digested, centrifuged and then resuspended. The single cell suspension was mixed well, and the density of viable cells was adjusted to 5.0×10^4 cells/ml with cell culture medium (RPMI1640+2% FBS), and 95 μl/well was added to a 96-well cell culture plate. Only 100 μl medium was added to the peripheral wells of the 96-well plate. The culture plate was incubated in an incubator for 24 hours (37° C., 5% CO2).
The compound was dissolved in DMSO (dimethyl sulfoxide, Shanghai Titan Scientific Co., Ltd.) and prepared into a stock solution with an initial concentration of 20 mM. The initial concentration of the small molecule compound is 2 mM, and then 4-fold diluted into to 9 points, and the tenth point is DMSO. Another 96-well plate was taken, 90 μl of cell culture medium (RPMI1640+2% FBS) was added to each well, then 10 μl of different concentrations of the test sample was added to each well, the mixture was mixed well, and then 5 μl of different concentrations of the test sample was added to the cell culture plate, and each sample has two duplicate holes. The culture plate was incubated in the incubator for 3 days (37° C., 5% CO2). The 96-well cell culture plate was taken out, 50 μl CTG solution was added to each well, and the plate was incubated for 10 minutes at room temperature. In a microplate reader (BMG labtech, PHERAstar FS), chemiluminescence was measured with the microplate reader.
as §2

[1] = Pharmacokinetics assay in mice; type: in vivo; conditions: mouse, po, C57 mice (female), intragastric, 2 mg/kg, plasma; for Vd/F: read-out: Apparent distribution volume Vz/F; for AUC: read-out: Area under curve AUC; for CL/F: read-out: Clearance CLz/F; for half-life: read-out: Half Life T1/2 (converted); for Cmax: read-out: Plasma Concentration Cmax; for MRT: read-out: Residence Time MRT
Description: Mice were used as the test animal. The drug concentration in plasma at different time points was determined by LC/MS/MS method after administration of compound 3-P2, compound 4-P2, compound 9-P2, compound 10-P2, compound 12 and compound 15. The pharmacokinetic behavior of the compounds of the present disclosure in mice was studied, and the pharmacokinetic characteristics were evaluated.
54 of C57 mice (female) were equally divided into 6 groups, which were purchased from Shanghai Jiesijie Laboratory Animal Co., Ltd., with the animal production license number: SOCK (Shanghai) 2013-0006.
A certain amount of compound was weighted, followed by the addition of 5% volume of DMSO and 5% Tween 80 to dissolve it, then followed by the addition of 90% normal saline to prepare a colorless and clear solution of 0.1 mg/mL.
After an overnight fast, C57 mice were intragastrically administered the test compound at an administration dose of 2 mg/kg and an administration volume of 0.2 ml/10 g.
The mice were intragastrically administered the test compounds. 0.1mL of blood was taken before the administration and at 0.25, 0.5, 1.0, 2.0, 4.0, 6.0, 8.0, 11.0, 24.0 hours after the administration. The blood was placed in a heparinized test tube, and centrifuged at 3500 rpm for 10 minutes. The plasma was separated and stored at −20° C.
The content of the test compound in the plasma of mice after […] administration of the test compound at different concentrations was determined: 25 μl of mouse plasma at each time point after the administration was taken, followed by the addition of 50 μl of the internal standard camptothecin solution (100 ng/mL) and 200 μl of acetonitrile. The resulting solution was vortex-mixed for 5 minutes, and centrifuged for 10 minutes (4000 rpm). 4μl of the supernatant was taken from the plasma samples for LC/MS/MS analysis.

ERK1 = molecular target: T2, ERK1 (Homo sapiens, UniProt P27361); assay: ERK1 enzyme activity test (ADP-Glo Kinase Assay); type: biochemical; conditions: chemiluminescence
T2 construct: purchased R&D 1879-KS-010
T2 sequence (P27361 whole entry): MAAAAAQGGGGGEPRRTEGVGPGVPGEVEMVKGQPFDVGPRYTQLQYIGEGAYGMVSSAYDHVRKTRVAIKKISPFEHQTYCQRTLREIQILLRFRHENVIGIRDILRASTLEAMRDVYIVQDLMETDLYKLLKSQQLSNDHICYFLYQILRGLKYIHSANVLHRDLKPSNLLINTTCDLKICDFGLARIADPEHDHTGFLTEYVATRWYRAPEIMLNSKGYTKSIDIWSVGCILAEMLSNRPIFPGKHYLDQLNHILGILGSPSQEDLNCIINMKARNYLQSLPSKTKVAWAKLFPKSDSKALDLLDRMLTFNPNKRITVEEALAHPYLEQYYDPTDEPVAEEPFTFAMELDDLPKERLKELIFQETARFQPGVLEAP
Description: as §1, with “ERK1” for “ERK2”
Enzyme and substrate preparation: ERK1 (1879-KS-010, R&D) and substrate (AS-61777, anaspec) were prepared to be 0.75 ng/μl and 100 μM respectively in the buffer. The enzyme solution and substrate solution were then prepared into a mixed solution at a volume ratio of 2:1 for later use. ATP was diluted to 300 μM with the buffer. The compounds were dissolved in DMSO (dimethyl sulfoxide, Shanghai Titan Scientific Co., Ltd.) to prepare a stock solution with an initial concentration of 20 mM, and then Bravo was used to prepare solutions of the compounds. Finally, a 3 μL of a mixed solution of enzyme and substrate, and 1 μL of different concentrations of the compound (the initial concentration is 50 μM, 4-fold dilution) were added to each well of the 384-well plate, and the plate was incubated at 30° C. for 10 minutes, and finally 1 μL of 300 μM ATP solution was added to each well, and the plate was incubated at 30° C. for 2 hours. Then 5 μL of ADP-Glo was added, and the plate was incubated at 30° C. for 40 minutes. Then 10 μL of Kinase detection buffer was added, and the plate was incubated at 30° C. for 40 minutes. The 384-well plate was taken out and placed in a microplate reader (BMG labtech, PHERAstar FS), and the chemiluminescence was measured by the microplate reader.
as §2

T1 sequence (P28482 whole entry): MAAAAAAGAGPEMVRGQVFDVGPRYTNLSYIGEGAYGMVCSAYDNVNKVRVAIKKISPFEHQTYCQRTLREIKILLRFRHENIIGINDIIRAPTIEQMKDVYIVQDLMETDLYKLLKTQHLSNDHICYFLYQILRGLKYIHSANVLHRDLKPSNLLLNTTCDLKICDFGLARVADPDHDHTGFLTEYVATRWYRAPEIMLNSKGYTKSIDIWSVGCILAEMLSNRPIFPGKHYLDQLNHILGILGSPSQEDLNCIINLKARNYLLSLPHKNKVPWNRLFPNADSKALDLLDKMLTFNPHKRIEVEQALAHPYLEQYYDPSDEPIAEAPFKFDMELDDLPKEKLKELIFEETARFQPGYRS

Row | IC50 (ERK2) | IC50 (Colo205 cells) | Vd/F [1] | AUC [1] | CL/F [1] | half-life [1] | Cmax [1] | MRT [1] | IC50 (ERK1) | SMILES
1 | 1 nM | 8 nM | – | – | – | – | – | – | – | O=C(CN1CCc2sc(-c3nc(NC4CCOCC4)ncc3Cl)cc2C1=O)N[C@H](CO)c1cccc(Cl)c1 [Example 1, (S)-2-(2-(5-Chloro-2-((tetrahydro-2H-pyran-4-yl)amino)pyrimidin-4-yl)-4-oxo-6,7-dihydrothieno[3,2-c]pyridin-5(4H)-yl)-N-(1-(3-chlorophenyl)-2-hydroxyethyl)acetamide]
2 | 4 nM | 26 nM | 2.98 L/kg | 914 ng·h/mL | 36.5 mL/min/kg | 0.945 h | 708 ng/mL | 1.16 h | – | Cc1cccc([C@@H](CO)NC(=O)[C@@H](C)N2CCc3sc(-c4nc(NC5CCOCC5)ncc4Cl)cc3C2=O)c1 [Example 3-P2, (R)-2-(2-(5-Chloro-2-((tetrahydro-2H-pyran-4-yl)amino)pyrimidin-4-yl)-4-oxo-6,7-dihydrothieno[3,2-c]pyridin-5(4H)-yl)-N-((S)-2-hydroxy-1-(m-methylphenyl)ethyl)propionamide]
3 | 6 nM | 29 nM | 8.09 L/kg | 364 ng·h/mL | 91.5 mL/min/kg | 1.02 h | 376 ng/mL | 1.14 h | – | C[C@H](C(=O)N[C@H](CO)c1cccc(Cl)c1)N1CCc2sc(-c3nc(NC4CCOCC4)ncc3Cl)cc2C1=O [Example 4-P2]
4 | 3 nM | 38 nM | – | – | – | – | – | – | – | Cc1cccc([C@@H](CO)NC(=O)CN2CCc3sc(-c4nc(Nc5ccnn5C)ncc4C)cc3C2=O)c1 [Example 7, (S)-N-(2-Hydroxy-1-(m-methylphenyl)ethyl)-2-(2-(5-methyl-2-((1-methyl-1H-pyrazol-5-yl)amino)pyrimidin-4-yl)-4-oxo-6,7-dihydrothieno[3,2-c]pyridin-5(4H)-yl)acetamide]
5 | 2 nM | 16 nM | – | – | – | – | – | – | 5 nM | COc1cc(F)cc([C@@H](CO)NC(=O)[C@@H](C)N2CCc3sc(-c4ccnc(NC5CCOCC5)n4)cc3C2=O)c1 [Example 11, (R)-N-((S)-1-(3-Fluoro-5-methoxyphenyl)-2-hydroxyethyl)-2-(4-oxo-2-(2-((tetrahydro-2H-pyran-4-yl)amino)pyrimidin-4-yl)-6,7-dihydrothieno[3,2-c]pyridin-5(4H)-yl)-propionamide]
6 | 9 nM | 26 nM | – | – | – | – | – | – | – | Cc1cccc([C@@H](CO)NC(=O)[C@@H](C)N2CCc3sc(-c4nc(N[C@@H](C)CO)ncc4Cl)cc3C2=O)c1 [Example 13, (R)-2-(2-(5-Chloro-2-(((S)-1-hydroxypropan-2-yl)amino)pyrimidin-4-yl)-4-oxo-6,7-dihydrothieno[3,2-c]pyridin-5(4H)-yl)-N-((S)-2-hydroxy-1-(m-methylphenyl)ethyl)propionamide]
7 | 6 nM | 14 nM | – | – | – | – | – | – | 27 nM | COc1cc(F)cc([C@@H](CO)NC(=O)[C@@H](C)N2CCc3sc(-c4nc(Nc5ccnn5C)ncc4Cl)cc3C2=O)c1 [Example 14, (R)-2-(2-(5-Chloro-2-((1-methyl-1H-pyrazol-5-yl)amino)pyrimidin-4-yl)-4-oxo-6,7-dihydrothieno[3,2-c]pyridin-5(4H)-yl)-N-((S)-1-(3-fluoro-5-methoxyphenyl)-2-hydroxyethyl)prop ionamide]
8 | 1 nM | – | – | – | – | – | – | – | 3 nM | COc1cc(F)cc([C@@H](CO)NC(=O)[C@@H](C)N2CCc3sc(-c4nc(NC5CCOCC5)ncc4C)cc3C2=O)c1 [Example 16, (R)-N-((S)-1-(3-Fluoro-5-methoxyphenyl)-2-hydroxyethyl)-2-(2-(5-methyl-2-((tetrahydro-2 H-pyran-4-yl)amino)pyrimidin-4-yl)-4-oxo-6,7-dihydrothieno[3,2-c]pyridin-5-(4H)-yl)prop ionamide]
9 | 2 nM | 17 nM | – | – | – | – | – | – | 12 nM | COc1cc(F)cc([C@@H](CO)NC(=O)[C@@H](C)N2CCc3sc(-c4nc(N[C@@H](C)CO)ncc4C)cc3C2=O)c1 [Example 17, (R)-N-((S)-1-(3-Fluoro-5-methoxyphenyl)-2-hydroxyethyl)-2-(2-(2-(((S)-1-hydroxypropan-2-yl)amino)-5-methylpyrimidin-4-yl)-4-oxo-6,7-dihydrothieno[3,2-c]pyridin-5(4H)-yl)prop ionamide]
